{"source": "patent US20060148023A1", "about": "“Affinity labeling of serine proteases for simultaneous detection of multiple serine protease activity levels” (priority 2001, published 2006)", "assay_type_in_all_cases": "cell-based", "details_in_all_cases": "for SFCK RFU: red, ex 590 nm/em 620 nm; for SFCK RFU / FLCK RFU: average of 4 wells; for FLCK RFU: green, ex 488 nm/em 535 nm", "key": {"[1]": {"tested_on": "U937 cells", "assay": "FLISP staining of U937 cells, fluorescence plate reader", "experimental": "(§1) Preparation of reagents: Fluorescent inhibitors of serine proteases (FLISP) reagents, 5(6)-Carboxyfluoresceinyl-L-phenylalanylchloromethyl ketone (FFCK), 5(6)-carboxyfluoresceinyl-L-leucylchloromethyl ketone (FLCK), Sulforhodaminyl 101 -L-phenylalanylchloromethyl ketone (SFCK) and Sulforhodaminyl 101 -L-leucylchloromethyl ketone (SLCK) are dissolved initially in dimethyl sulfoxide (DMSO; Sigma) to yield a 10 mM concentration. Aliquots are made from this stock solution and stored frozen at −20° C. protected from light. The reagent stock of the FLCK is then diluted directly into the cell culture media to give a 1× working reagent concentration of 20 μM and the reagent stock of the SFCK is then diluted directly into the cell culture media to give a 1× working reagent concentration of 5 μM. Dilution of the reagent into aqueous (cell culture) media is done just prior to cell exposure to preserve the labile chloromethyl ketone reactivity of FLISP reagent.\n(§2) Cells: Jurkat, HL-60 and U937 cells were obtained from American Type Culture Collection (ATCC; Rockville, Md.). They were cultured in 25 mL FALCON flasks (Becton Dickinson Co., Franklin Lakes, N.J.) using RPMI 1640 supplemented with 10% fetal calf serum, 100 units/mL penicillin, […] and 2 mM L-glutamine (all from Gibco/BRL Life Technologies, Inc., Grand Island, N.Y.) in a humidified incubator set to maintain 37.5° C. and 5 % CO2. At the onset of experiments, the cells were at an exponential and asynchronous growth phase with fewer than 5×10^5 cells per/mL in culture. To induce apoptosis the cells were treated with 0.15 μM DNA topoisomerase I inhibitor camptothecin (CPT; Sigma Chemical Co., St. Louis, Mo.) for 3 hours.\n(§3) Cell staining and evaluation by fluorescence plate reader: The Jurkat, HL-60 and U937 cells from the untreated or CPT treated cultures were centrifuged (200 g, 5 min) and resuspended in PBS at approximately 10^6 cells per 5 ml volume. FLISP staining solutions were prepared by diluting 10 μL of a green 10 mM FLISP reagent stock solution (FLCK) and 2.5 μL of a red 10 mM FLISP reagent stock solution (SFCK) into 5 mL of culture medium yielding a final green FLISP concentration of 20 μM and a final red FLISP concentration of 5 μM. When detecting multiple serine proteases use different CMK labeled peptides i.e. FLCK and SFCK or FFCK and SLCK. The FLISP staining solution was removed by washing the cells in wash buffer (0.5% BSA in PBS +0.05% NaN3, pH 7.4) and centrifuging for 5 minutes at 200 g. The washing step was repeated two more times with fresh wash buffer. After the final wash the cells were resuspended in 5 mL wash buffer and 100 μL per were added to a 96 well black microtiter plate (4 wells were used for each sample). Green and red fluorescence were measured simultaneously on a Spectra MAX Gemini XS fluorescence plate reader (Molecular Devices). Green cell fluorescence (FLCK) was then measured using a 488 nm excitation, 535 nm emission with a 515 nm cutoff. Red cell fluorescence (SFCK) was then measured using a 590 nm excitation, 620 emission with a 610 nm cutoff."}, "[2]": {"tested_on": "HL-60 cells", "assay": "FLISP staining of HL-60 cells, fluorescence plate reader", "experimental": "as §1, §2, §3"}, "[3]": {"tested_on": "Jurkat cells", "assay": "FLISP staining of Jurkat cells, fluorescence plate reader", "experimental": "as §1, §2, §3"}}}
{"compound": "CCN(CC)c1ccc2c(-c3ccc(S(=O)(=O)NC(Cc4ccccc4)C(=O)CCl)cc3S(=O)(=O)[O-])c3ccc(=[N+](CC)CC)cc-3oc2c1", "note": "[SFCK, Sulforhodaminyl-L-phenylalanylchloromethyl ketone]", "values": [{"measurement": "SFCK Ratio of I/NI", "setting": "[1]; U937, induced/non-induced, 5 μM", "result": 1.82}, {"measurement": "SFCK RFU", "setting": "[1]; U937 I (induced, apoptotic; 0.15 μM CPT 3 h), 5 μM", "result": 44.245, "unit": "RFU"}, {"measurement": "SFCK RFU", "setting": "[1]; U937 NI (non-induced), 5 μM", "result": 24.341, "unit": "RFU"}, {"measurement": "SFCK Ratio of I/NI", "setting": "[2]; HL-60, induced/non-induced, 5 μM", "result": 1.28}, {"measurement": "SFCK RFU", "setting": "[2]; HL-60 I (induced, apoptotic; 0.15 μM CPT 3 h), 5 μM", "result": 49.045, "unit": "RFU"}, {"measurement": "SFCK RFU", "setting": "[2]; HL-60 NI (non-induced), 5 μM", "result": 38.301, "unit": "RFU"}, {"measurement": "SFCK RFU", "setting": "[3]; Jurkat I (induced, apoptotic; 0.15 μM CPT 3 h), 5 μM", "result": 74.348, "unit": "RFU"}, {"measurement": "SFCK RFU", "setting": "[3]; Jurkat NI (non-induced), 5 μM", "result": 30.596, "unit": "RFU"}, {"measurement": "SFCK Ratio of I/NI", "setting": "[3]; Jurkat, induced/non-induced, 5 μM", "result": 2.43}]}
{"compound": "5(6)-carboxyfluoresceinyl-L-leucylchloromethyl ketone [FLCK]", "values": [{"measurement": "FLCK Ratio of I/NI", "setting": "[1]; U937, induced/non-induced, 20 μM", "result": 3.70}, {"measurement": "FLCK RFU", "setting": "[1]; U937 I (induced, apoptotic; 0.15 μM CPT 3 h), 20 μM", "result": 8.208, "unit": "RFU"}, {"measurement": "FLCK RFU", "setting": "[1]; U937 NI (non-induced), 20 μM", "result": 2.218, "unit": "RFU"}, {"measurement": "FLCK Ratio of I/NI", "setting": "[2]; HL-60, induced/non-induced, 20 μM", "result": 1.59}, {"measurement": "FLCK RFU", "setting": "[2]; HL-60 I (induced, apoptotic; 0.15 μM CPT 3 h), 20 μM", "result": 7.552, "unit": "RFU"}, {"measurement": "FLCK RFU", "setting": "[2]; HL-60 NI (non-induced), 20 μM", "result": 4.748, "unit": "RFU"}, {"measurement": "FLCK RFU", "setting": "[3]; Jurkat I (induced, apoptotic; 0.15 μM CPT 3 h), 20 μM", "result": 13.291, "unit": "RFU"}, {"measurement": "FLCK RFU", "setting": "[3]; Jurkat NI (non-induced), 20 μM", "result": 3.702, "unit": "RFU"}, {"measurement": "FLCK Ratio of I/NI", "setting": "[3]; Jurkat, induced/non-induced, 20 μM", "result": 3.59}]}
